# Read-outs that look alike come from different tables or passages of the source.
# Tests used:
# Aβ42 = biological target: T1, Aβ42 (Homo sapiens, UniProt P05067); assay: Aβ42 nucleation rate versus [Aβ42]^2 (ThT, early lag phase, linear fit); assay type: biochemical; details: linear least-squares fit of Rate-versus-[Aβ42]^2; free ligand 17 × Kd
# T1 construct: Small red spheres mark the Aβ42 peptide C-terminal residue, A42; purchased Sigma-Aldrich Corp
# Procedure: Reaction 1 of the NEF scheme assumes nucleation is second order in Aβ42 monomer concentration. The reaction order was determined for ligand-bound and free forms of Aβ42 by plotting nucleation rates versus [Aβ42]^n, where n, the reaction order, is 1, 2, or 3—such plots become linear only when n equals the reaction order ([54]). Nucleus formation was monitored via ThT fluorescence in the region of the progress curve where nucleation is rate limiting—the very early stage of the lag phase. Rates were obtained by linear least-squares fitting of progress curves. In all cases, fits were initiated at t0 and deviation from linearity was within experimental error (i.e., χ^2 > 0.95). […] The nucleation rate constants are given by the slopes of the plots (obtained by linear least-squares fitting) and are within the error of those predicted by NEF fitting, see Table 2.
# Figure 4 Nucleation reaction order. Reactions were monitored via binding-induced changes in ThT fluorescence (λex = 450 nm, λem = 482 nm). All reactions were performed under the following conditions: ThT (30 μM), DMSO (0.5 % v/v), and K2PO4 (50 mM), pH 7.4, 25 °C ± 2 deg. C. […] A, unliganded Aβ42 nucleation. Titrant concentrations: Aβ42 (1.0, 2.0, 3.0, or 4.0 μM). B, CH•Aβ42 nucleation. […]
# The formation of fibril nuclei was monitored via the Aβ-binding induced change in ThT fluorescence (λex = 450 nm, λem = 482 nm, ([42])). […]
# Aβ42 monomer = biological target: T2, Aβ42 monomer (Homo sapiens, UniProt P05067); assay: Sterol binding to Aβ42, equilibrium DHE fluorescence titrations
# T2 construct: Small red spheres mark the Aβ42 peptide C-terminal residue, A42; purchased Sigma-Aldrich Corp
# T2 sequence (P05067 672-713 limits assumed): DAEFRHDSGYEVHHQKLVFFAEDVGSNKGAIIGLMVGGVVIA
# Procedure: CH ([27]) and CS ([28]) increase the rate of Aβ aggregation and CH is thought to stabilize fibrils ([29]); yet, the affinities of CH and its metabolites for the Aβ peptide monomer have not been determined. Here, CH and CS affinities for the Aβ42 monomer are established using dehydroergosterol (DHE)—a fluorescent CH analog ([30]) used as a competitive probe to determine CH and CS affinities. Aβ42 monomers were prepared as previously described ([31]) (see Methods). […] Under this condition, Aβ42 essentially quantitatively binds DHE until its concentration exceeds that of DHE, which results in a breakpoint in the titration curve that yields the stoichiometry. The arrow seen descending from the breakpoint indicates a stoichiometry of 1:1, which agrees well with the ∼1:1 CH-metabolite:Aβ stoichiometry estimated from analysis of senile plaques micro-dissected from AD-patient brain tissue ([15]).
# Figure 1 Sterol binding to Aβ42at equilibrium.A, DHE affinity for monomeric Aβ4_2. […] Binding was detected via the binding-induced 4.4 (±0.2)-fold increase in DHE fluorescence (λex = 325 nm, λem= 375 nm). Fluorescence intensity, I, is plotted relative to the intensity at zero titrant, I0. Titrations were performed independently in triplicate and the line passing through the data is the least-squares fit to a single-binding-site model. B, Aβ42:DHE stoichiometry. […] C. DHE fluorescence (λex = 325 nm, λem = 375 nm) is plotted versus [Aβ42]/[DHE]. The line descending from the titration breakpoint indicates a stoichiometry of 1:1. C and D, CH and CS affinities. Affinities were determined by competitive binding versus DHE. […] C, was titrated with CH (5.0–500 nM, 0.05–5 × Kd) or CS (5.0–500 nM, 0.15–[…] × Kd). Binding was monitored via the decrease in DHE fluorescence (λex = 325, λem = 375) caused by DHE displacement from Aβ42. Controls ensured that <2.0% of Aβ42 oligomerized during the measurement. Titrations were performed in triplicate and averaged. The solid lines through the data represent least-squares fits to a competitive single-binding-site model. C and D, insets highlight the behavior of the titration over ligand concentrations that span their reported CMCs (indicated by arrows). […]
# DHE/Aβ42 binding interactions were monitored via the binding-induced 4.4-fold change in DHE fluorescence (λex = 325 nm, λem= 375 nm). […]
# The affinities of CH and CS for Aβ42 were determined in competitive binding studies versus DHE. Binding was detected via the fluorescence decrease (λex= 325 nm, λem = 375 nm) caused by DHE displacement. […] Imax = (fraction DHE-bound to peptide at zero competitive ligands)/4.4 — the fold fluorescence change associated with DHE dissociation, see Figure 1A.
# T1 sequence (P05067 672-713 limits assumed): as above
"Kd (Aβ42 monomer; determined in DHE competition studies, DHE 10 nM, Aβ42 20 nM, K2PO4 50 mM, pH 7.4, 25 °C, read-out: Kd)",Structure (SMILES),"Nucleation rate constant, linear model (Aβ42)",Kd (Aβ42 monomer),enhanced affinity of CS over CH for Aβ42 (Aβ42 monomer; ratio of Kd values)
120 nM,"CC(C)CCC[C@@H](C)[C@H]1CC[C@H]2[C@@H]3CC=C4C[C@@H](O)CC[C@]4(C)[C@H]3CC[C@]12C [CH, cholesterol]",7.3 (0.1) × 10^−14 nM^−1 s^−1,,
,"CC(C)CCC[C@@H](C)[C@H]1CC[C@H]2[C@@H]3CC=C4C[C@@H](OS(=O)(=O)O)CC[C@]4(C)[C@H]3CC[C@]12C [CS, cholesterol 3-sulfate]",1.5 (0.1) × 10^−11 nM^−1 s^−1,36 nM,3.4 fold

# — publication PMC10704437, “Sterol-activated amyloid beta fibril formation” (The Journal of Biological Chemistry, 2023)
